# Structures can show the parent of a compound that is named as a salt. Where two headings read alike, the source gives them in different places.
# Assays:
# [1] = target: T1, Recombinant human PKC-delta (His-tagged 345-676) (Homo sapiens, UniProt Q05655); experiment: PKC-delta inhibition assay (HTRF KinEASE kit); assay type: biochemical; conditions: ratio, PKC-theta vs PKC-delta HTRF; for PKC-theta/PKC-delta selectivity (binned): binned A to G
# T1 construct: PKC-delta (His-tagged 345-676); His
# T1 sequence (Q05655 345-676): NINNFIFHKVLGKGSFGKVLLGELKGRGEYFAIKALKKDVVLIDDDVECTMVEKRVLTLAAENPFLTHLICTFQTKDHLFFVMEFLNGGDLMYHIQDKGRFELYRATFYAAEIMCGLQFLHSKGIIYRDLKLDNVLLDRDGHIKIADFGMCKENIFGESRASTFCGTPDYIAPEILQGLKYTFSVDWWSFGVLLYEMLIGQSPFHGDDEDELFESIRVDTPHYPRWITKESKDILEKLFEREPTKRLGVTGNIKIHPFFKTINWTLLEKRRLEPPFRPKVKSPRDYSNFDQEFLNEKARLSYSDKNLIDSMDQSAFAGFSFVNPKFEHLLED
# [2] = test system: IL-2 secretion by human effector memory T cells (TEM); experiment: Effector memory T cells IL-2 release assay (CD3/CD28 stimulation, HTRF IL-2 detection); assay type: cell-based; conditions: 24 h; for IC50: Homo sapiens, T-cell
# Method in brief: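 IL-2 released into the supernatant was quantified by HTRF after 24 h at 37 °C in 5% CO2. The cells were stimulated primary human TEM from donor buffy coats, treated with a 10-point semi-log compound series (0.1% DMSO final, triplicates).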
# [3] = target: T2, Recombinant human PKC-theta (His-tagged 362-706) (Homo sapiens, UniProt Q04759); experiment: PKC-theta inhibition assay (HTRF KinEASE kit); assay type: biochemical; conditions: STK substrate 525 nM
# T2 construct: Recombinant human PKC-theta (His-tagged 362-706); His
# T2 sequence (Q04759 362-706): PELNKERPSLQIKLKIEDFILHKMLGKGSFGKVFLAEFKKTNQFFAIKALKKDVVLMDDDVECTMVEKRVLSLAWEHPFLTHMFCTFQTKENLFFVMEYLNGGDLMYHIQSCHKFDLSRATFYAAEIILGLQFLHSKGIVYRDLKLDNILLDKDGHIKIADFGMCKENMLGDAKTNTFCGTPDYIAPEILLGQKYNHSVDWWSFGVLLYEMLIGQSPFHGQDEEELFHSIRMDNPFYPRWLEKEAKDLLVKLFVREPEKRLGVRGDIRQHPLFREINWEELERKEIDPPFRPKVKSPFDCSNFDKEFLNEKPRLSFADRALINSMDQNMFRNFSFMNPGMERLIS
# Method in brief: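 IC50 values were from 4-parameter logistic fits of percent inhibition, based on acceptor/donor HTRF ratios over 10 semi-log compound doses. Kinase reactions, started with substrate plus ATP, ran 30 min at 25 °C in buffer supplemented with 10 mM MgCl2, 1 mM DTT and 0.1% Tween 20; detection lasted 2 h.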
# [4] = binned A to G, read-out: PKC-theta IL2 pIC50 (binned) (converted)
# [5] = read-out: PKC-theta IL2 pIC50 (converted)
# [6] = ATP 6.5 μM, binned A to H, read-out: PKC-theta HTRF pIC50 (binned) (converted)
# [7] = ATP 6.5 μM, read-out: PKC-theta HTRF pIC50 (converted)
Compound,PKC-theta/PKC-delta selectivity [1],PKC-theta/PKC-delta selectivity (binned) [1],"IC50 [2, 4]","IC50 [2, 5]","IC50 [3, 6]","IC50 [3, 7]",PKC-theta IL2 pIC50 [2],PKC-theta IL2 pIC50 (binned) ([2]; binned A to G),"IC50 ([3]; PKC-theta HTRF pIC50 (binned), ATP 6.5 μM, binned A to H)","IC50 ([3]; PKC-theta HTRF pIC50, ATP 6.5 μM)"
"C[C@@]1(O)C(=O)Nc2nccc(-c3cc(C(F)(F)F)cc(N4C[C@H]5CC[C@@H](C4)N5)n3)c21 (single isomer, unassigned) [Example 136]",11,D (a ratio of between 10 and 20),316 to 1000 nM,501 nM,10 to 31.6 nM,25.1 nM,,,,
C[C@@H]1CCNCCN1c1cc(C(F)(F)F)cc(-c2ccnc3c2C(C)(C)C(=O)N3)n1 [Example 188],28,C (a ratio of between 20 and 30),31.6 to 100 nM,100 nM,3.16 to 10 nM,6.31 nM,,,,
"C[C@]1(O)C(=O)Nc2nccc(-c3cc(F)cc(N4CCNCC4)c3)c21 (single isomer, unassigned) [Example 62]",5,E (a ratio of between 5 and 10),100 to 316 nM,126 nM,3.16 to 10 nM,6.31 nM,,,,
C[C@H](O)[C@@H]1CN(c2cc(C(F)(F)F)cc(-c3ccnc4c3C(C)(C)C(=O)N4)n2)CCN1 [Example 121],12,D (a ratio of between 10 and 20),316 to 1000 nM,631 nM,10 to 31.6 nM,25.1 nM,,,,
"CO[C@]1(C)C(=O)Nc2nccc(-c3cc(Cl)cc(N4CCNC[C@H]4C)n3)c21 (single isomer, unassigned) [Example 172]",13,D (a ratio of between 10 and 20),100 to 316 nM,100 nM,3.16 to 10 nM,10 nM,,,,
CC1(C)C(=O)Nc2nccc(-c3cc(C(F)(F)F)cc(N4CCNCC4)n3)c21 [Example 66],13,D (a ratio of between 10 and 20),31.6 to 100 nM,79.4 nM,3.16 to 10 nM,5.01 nM,,,,
"CC[C@H]1CN(c2ccc(Cl)c(-c3ccnc4c3[C@](C)(O)C(=O)N4)n2)CCN1 (single isomer, unassigned) [Example 128]",5,F (a ratio of between 1 and 5),100 to 316 nM,316 nM,10 to 31.6 nM,25.1 nM,,,,
"C[C@H]1CN(c2cc(-c3ccnc4c3[C@@](C)(O)C(=O)N4)cc(C(F)(F)F)c2)CCN1 (single isomer, unassigned) [Example 82]",3,F (a ratio of between 1 and 5),,,316 to 1000 nM,1000 nM,5.4,G (a measured pIC50<6.0),,
C[C@@H]1CN(c2ccc(Cl)c(-c3ccnc4c3[C@](C)(O)C(=O)N4)c2)CCN1 [Example 106],10,D (a ratio of between 10 and 20),> 1000 nM,10000 nM,316 to 1000 nM,1000 nM,,,,
CC1(C)C(=O)Nc2nccc(-c3cc(C(F)(F)F)cc(N4CCNC(C(C)(C)O)C4)n3)c21 (stereo not drawn) [Example 124],16,D (a ratio of between 10 and 20),100 to 316 nM,158 nM,3.16 to 10 nM,3.98 nM,,,,
"CC1(C)C(=O)Nc2nccc(-c3cc(F)cc(CN4CCNCC4)c3)c21 [Example 32, 4-[3-fluoro-5-(piperazin-1-ylmethyl)phenyl]-3,3-dimethyl-1H-pyrrolo[2,3-b]pyridin-2-one; dihydrochloride]",3,F (a ratio of between 1 and 5),> 1000 nM,3980 nM,,,,,100 to 316 nM,200 nM
"CC1(C)CN(c2cc(Cl)cc(-c3ccnc4c3[C@](C)(O)C(=O)N4)n2)CCN1 (single isomer, unassigned) [Example 133]",10,D (a ratio of between 10 and 20),31.6 to 100 nM,50.1 nM,1 to 3.16 nM,2.51 nM,,,,
CC1(C)C(=O)Nc2nccc(-c3cc(C(F)(F)F)cc(N4C[C@H]5CC[C@@H](C4)N5)n3)c21 [Example 135],13,D (a ratio of between 10 and 20),100 to 316 nM,316 nM,10 to 31.6 nM,20 nM,,,,
C[C@H]1CCNCCN1c1cc(C(F)(F)F)cc(-c2ccnc3c2C(C)(C)C(=O)N3)n1 [Example 187],28,C (a ratio of between 20 and 30),31.6 to 100 nM,100 nM,3.16 to 10 nM,5.01 nM,,,,
"C[C@@H]1CNCCN1c1cc(C(F)(F)F)cc(-c2ccnc3c2[C@](C)(O)C(=O)N3)n1 (single isomer, unassigned) [Example 94]",9,E (a ratio of between 5 and 10),10 to 31.6 nM,20 nM,1 to 3.16 nM,2 nM,,,,
C[C@@H]1CNCCCN1c1cc(C(F)(F)F)cc(-c2ccnc3c2C(C)(C)C(=O)N3)n1 [Example 190],32,B (a ratio of between 30 and 50),31.6 to 100 nM,79.4 nM,3.16 to 10 nM,3.16 nM,,,,
CC1(O)C(=O)Nc2nccc(-c3cc(N4CCNCC4)ccc3F)c21 (stereo not drawn) [Example 60],4,F (a ratio of between 1 and 5),> 1000 nM,1580 nM,100 to 316 nM,126 nM,,,,
CN(C)Cc1cccc(-c2ccnc3[nH]c(=O)[nH]c23)c1 [Example 3],1,F (a ratio of between 1 and 5),> 1000 nM,5010 nM,316 to 1000 nM,794 nM,,,,
C[C@@H]1CNCCN1c1cc(F)cc(-c2ccnc3c2C(C)(O)C(=O)N3)c1 (stereo partly drawn) [Example 59],5,F (a ratio of between 1 and 5),100 to 316 nM,126 nM,3.16 to 10 nM,5.01 nM,,,,
C[C@H]1CN(c2cc(-c3ccnc4c3C(C)(O)C(=O)N4)cc(C(F)(F)F)c2)CCN1 (stereo partly drawn) [Example 78],11,D (a ratio of between 10 and 20),100 to 316 nM,158 nM,10 to 31.6 nM,15.8 nM,,,,
"CC[C@@]1(C)C(=O)Nc2nccc(-c3cc(Cl)cc(N4CCNC[C@H]4C)n3)c21 (single isomer, unassigned) [Example 164]",5,F (a ratio of between 1 and 5),10 to 31.6 nM,12.6 nM,1 to 3.16 nM,2 nM,,,,
"CC1(F)CNCCN(c2cc(Cl)cc(-c3ccnc4c3[C@](C)(O)C(=O)N4)n2)C1 (single isomer, unassigned) [Example 92]",6,E (a ratio of between 5 and 10),100 to 316 nM,200 nM,3.16 to 10 nM,7.94 nM,,,,
CC(F)(F)c1cc(-c2c(F)cnc3c2C(C)(C)C(=O)N3)nc(N2CCNCC2)c1 [Example 174],10,D (a ratio of between 10 and 20),100 to 316 nM,316 nM,31.6 to 100 nM,31.6 nM,,,,
CC1(C)C(=O)Nc2nccc(-c3cccc(S(=O)(=O)N4CCNCC4)c3)c21 [Example 42],1,F (a ratio of between 1 and 5),> 1000 nM,10000 nM,> 1000 nM,2000 nM,,,,
CN1CCN(c2cccc(-c3ccnc4[nH]c(=O)[nH]c34)c2)CC1 [Example 17],2,F (a ratio of between 1 and 5),> 1000 nM,10000 nM,> 1000 nM,5010 nM,,,,
CCC1(O)C(=O)Nc2nccc(-c3cc(Cl)cc(N4CCN[C@@H](C)C4)n3)c21 (stereo partly drawn) [Example 113],22,C (a ratio of between 20 and 30),31.6 to 100 nM,79.4 nM,1 to 3.16 nM,3.16 nM,,,,
CC1(C)C(=O)Nc2nccc(-c3cc(C(F)(F)F)nc(N4CCNCC4)n3)c21 [Example 98],15,D (a ratio of between 10 and 20),100 to 316 nM,316 nM,10 to 31.6 nM,20 nM,,,,
